In assay [1] the target is T1, Ca^2+/CaM (Homo sapiens, UniProt P0DP23).
T1 construct: made in house
The following applies: reference not given; earlier FasDD study of the authors: ref [32]; read-out: Kd to Ca^2+/CaM, full-length FasDD; cited from earlier work. The source says: We have also shown that both lobes of Ca^2+/CaM are important for FasDD binding. […] Our attempt to identify the interaction regions by ... || To identify the Ca^2+/CaM-binding regions in large proteins is not a simple task. To predict the Ca^2+/CaM-binding site, a web-based tool is often used to provide favorable scores based on multiple criteria including hydropathy, α-helical propensity, hydrophobic residue content, residue charge, residue weight, helical class and occurrence of particular residues.[39] However, this method can still provide biased results.

The target of assay [2] is T1, Ca^2+/CaM. In words: NMR titration (2D 1H-15N HSQC) of 15N-labeled Ca^2+/CaM with FasDD peptides. It counts as binding. How it is done: (§1) NMR data were collected at 35°C on a Bruker Avance II (700 MHz ^1H) spectrometer equipped with a cryogenic triple-resonance probe, processed with NMRPIPE [35] and analyzed with NMRVIEW [36] or CCPN Analysis. […] For signal assignments of the complexes, ^13C-, ^15N-, or ^13C-/^15N-labeled Ca^2+/CaM at ~400–500 μM was mixed with unlabeled Fas-Pep1 (in 100% DMSO-d6) or Fas-Pep2 at 1.5:1 peptide:Ca^2+/CaM. […] The backbone atom resonances of Ca^2+/CaM complexes with Fas-Pep1 and Fas-Pep2 were assigned using HNCA, HN(CO)CA, HNCACB, HNCO, HN(CO)CACB and ^15N-edited NOESY-HSQC and TOCSY-HSQC experiments. These experiments have been also collected on ^15N-, or ^13C-/^15N-labeled Fas-Pep2 in complex with unlabeled Ca^2+/CaM to confirm the α-helical character of Fas-Pep2 when bound to Ca^2+/CaM. The chemical shifts of Ca^2+/CaM-bound Fas-Pep2 were used to predict its order parameters and secondary structure content in TALOS+.[38] Combined ^1H-^15N chemical shift changes were calculated as ΔδHN = [(ΔδH)^2+(ΔδN/5)^2]^1/2, where ΔδH and ΔδN are the ^1H and ^15N chemical shift changes, respectively. Kd values were calculated by non-linear least-square fitting algorithm in Origin software (OriginLab, Northampton, MA) using the equation: ΔδHN=ΔδHN^max((Kd+L0+P0)−((Kd+L0+P0)^2−4*P0*L0)^0.5)/(2*P0) where ΔδHN^max is the chemical shift change between complex and free protein, L0 total concentration of ligand, and P0 total concentration of protein.
To gain insights into the molecular elements of Ca^2+/CaM–FasDD interaction and to identify the interaction interface, we have utilized NMR chemical shift perturbation (CSP) as detected in ^1H-^15N heteronuclear single quantum coherence (HSQC) spectra. These experiments not only allow for identification of residues involved in binding but can also provide information on the induced conformational changes within proteins. 2D ^1H-^15N HSQC data obtained for a uniformly ^15N-labeled Ca^2+/CaM upon titration with unlabeled Fas-Pep1 are shown in Fig 5. Addition of substoichiometric amounts of Fas-Pep1 (0.5:1 peptide:Ca^2+/CaM) led to a decrease in intensity for a significant number of ^1H-^15N resonances accompanied by appearance of several new signals, consistent with a slow exchange on the NMR scale between the free and bound forms of Ca^2+/CaM. A steady decrease in intensity for the original ^1H-^15N signals and increase in intensity of the new signals was clearly observed with further addition of Fas-Pep1. Spectral changes ceased upon completion of peptide titration at 1.5:1 Fas-Pep1:Ca^2+/CaM ratio when only the new set of signals was present (Fig 5). […]
Only residues 214–227 have been detected in the x-ray structure of Ca^2+/CaM bound to FasDD(214–238); no electron density has been detected for residues 228–238.[40] […]

In assay [3] the target is T2, Ca^2+/CaM-C (Homo sapiens, UniProt P0DP23).
T2 construct: ^15N-labled samples of the isolated Ca^2+/CaM-N and Ca^2+/CaM-C domains; made in house
Put plainly: NMR titration (2D 1H-15N HSQC) of isolated C-terminal lobe. It counts as binding. The following applies: NMR HSQC titration, one-site model, 35°C, 50 mM Tris-d11 (pH 7.0), 100 mM NaCl, 5 mM CaCl2; 15N-Ca^2+/CaM-C 150 μM. How it is done:
as §1, with “The chemical shifts of Ca^2+/CaM-bound Fas-Pep2 were used to predict its order parameters and secondary structure content in TALOS+.[38]” left out, “protein. […]” for “protein.”

For assay [4], the target named is T1, Ca^2+/CaM. In words: Isothermal titration calorimetry (ITC), Ca^2+/CaM titrated into peptide. It counts as binding. The following applies: Ca^2+/CaM 450 μM into 25 μM Fas-Pep1 (25°C) or 195 μM into 17 μM Fas-Pep2 (35°C); 50 mM HEPES (pH 7.0), 100 mM NaCl, 5 mM CaCl2; single set of identical sites; three replicates typically. The procedure: Thermodynamic parameters of Ca^2+/CaM binding to Fas-Pep1 and Fas-Pep2 peptides were determined using an Auto-iTC200 microcalorimeter (Malvern Instruments). […] Heat of reaction of Ca^2+/CaM was measured over 19 injections at 25°C for Fas-Pep1 or 35°C for Fas-Pep2. Heat of dilution was measured by titrating Ca^2+/CaM into buffer. Data analysis was performed using the Microcal Origin package (ver. 8.1). Baseline corrections were performed by subtracting heat of dilution from the raw Ca^2+/CaM-peptide titration data. Binding curves were analyzed and dissociation constants (Kd) were determined by nonlinear least-square fitting of the baseline-corrected data. The formula used to fit the data as one binding site is: ΔQ(i)=Q(i)+(dVi/Vo)[(Q(i)+Q(i−1))/2]–Q(i–1) where ΔQ(i) is the heat released at i^th injection, Q(i) is the total heat content of the solution, dVi is injection volume, and Vo is total volume. Three replicate titration experiments were typically performed for each peptide.
Although it is recognized that the most frequent mechanism of CaM binding to target proteins involves the hydrophobic surfaces on the N- and C-terminal lobes,[23] electrostatic interactions also contribute to the formation and stabilization of CaM-protein complexes since CaM is acidic and CaM-binding motifs are often basic.[44, 45] The thermodynamic parameters of binding and the relative contribution of hydrophobic vs. electrostatic factors are often assessed by ITC methods, yielding various parameters such as dissociation constant (Kd), stoichiometry (n), enthalpy change (ΔH°) and entropy change (ΔS°). The thermodynamic parameters of Ca^2+/CaM binding to Fas-Pep1 and Fas-Pep2 were assessed by ITC.
In general terms: Isothermal titration calorimetry measures the heat released or taken up as one component is titrated into another.

Assay [5] deals with T3, Ca^2+/CaM-N (Homo sapiens, UniProt P0DP23).
T3 construct: ^15N-labled samples of the isolated Ca^2+/CaM-N and Ca^2+/CaM-C domains; made in house
In words: NMR titration (2D 1H-15N HSQC) of isolated N-terminal lobe. It counts as binding. The following applies: NMR HSQC titration, one-site model, 35°C, 50 mM Tris-d11 (pH 7.0), 100 mM NaCl, 5 mM CaCl2; 15N-Ca^2+/CaM-N 150 μM. How it is done:
as §1, with “The chemical shifts of Ca^2+/CaM-bound Fas-Pep2 were used to predict its order parameters and secondary structure content in TALOS+.[38]” left out, “protein. […]” for “protein.”

Read-outs that look alike come from different tables or passages of the source. Where no end group is shown, it is not given here.

Turning to “FasDD: intracellular death domain of Fas”, the Kd in assay [1] is roughly 2 µM.

As to “MTLSQVKGFVRKNGV [FasDD(224–238), synthetic FasDD peptide spanning residues 224–238; …]”, the “binding to Ca^2+/CaM by CSPs” value in assay [2] (1H-15N HSQC titration, 15N-Ca^2+/CaM 100 μM, 35°C, pH 7.0) is reported as “Numerous ^1H-^15N signals exhibited significant CSPs in the HSQC spectra (S7 Fig), indicating direct binding”. Further, the “lobe preference on Ca^2+/CaM” value in assay [2] (1H-15N HSQC, 15N-Ca^2+/CaM 100 μM) is reported as “appears to bind to the C-terminal domain of Ca^2+/CaM”. Besides, the “NMR exchange regime with Ca^2+/CaM” value in assay [2] (1H-15N HSQC, 15N-Ca^2+/CaM 100–150 μM, 35°C, pH 7.0) is “fast exchange”.

Consider “SDVDLSKYITTIAGVMTLSQVKGFVRKNGVN [Fas-Pep1]”, for which the Kd in assay [3] is 76 µM; in assay [4] it was 0.3 µM; in assay [5], roughly 268 µM.

(Values after paper PMC4703387, “Identification of the Calmodulin-Binding Domains of Fas Death Receptor” (PLoS ONE, 2016).)
